Measured values from patent US20240067651A1 (Biohaven Therapeutics Ltd., priority 2019, published 2024).

Experiments:
[1] = Caco-2 Permeability Assay; type: in vitro ADME, human; conditions: human
In short: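 Bidirectional transport at 37 °C for 90 min, 10 μM donor concentration, with or without Pgp inhibitor, across 21-day Caco-2 monolayers with TEER >600 […] in HEPES-buffered HBSS, pH 7.4. LC-MS/MS of donor and receiver samples gives Papp, B→A/A→B efflux ratio and mass recovery.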

[2] = Stability in Simulated Gastric Fluid (SGF); type: in vitro ADME; design: key: % parent compound remaining relative to 0-minute sample
In short: (§1)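 Each compound is spiked to a final 2 μg/mL into SGF with pepsin (pH 1.2) and into SIF with pancreatin (pH 6.8). Samples shake at 37° C, aliquots are taken between 0 and 60 minutes, precipitated with acetonitrile and analysed by LC-MS/MS. Degradation half-life is derived from the natural-log plot where time points allow.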

Plasma Stability = type: in vitro ADME, human
In short: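 Parent compound quantified by LC-MS/MS after acetonitrile precipitation, reported as percent of control remaining (triplicate). Incubation: 1 hour, 37° C, fresh human plasma, compound at 1 μM.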

[3] = Stability in Simulated Intestinal Fluid (SIF); type: in vitro ADME; design: key: % parent compound remaining relative to 0-minute sample
In short: as §1

[4] = Caco-2, pH 7.4, Caco-2 monolayer
[5] = Caco-2, pH 7.4, donor 10 μM, 90 minutes, 37° C., direction not given
[6] = % remaining at 1 h, SGF with pepsin pH 1.2, 2 μg/mL, 37° C.
[7] = % remaining at 1 h, human plasma, 1 μM, 37° C.
[8] = % remaining at 1 h, SIF with pancreatin pH 6.8, 2 μg/mL, 37° C.
[9] = % remaining at 1 h in simulated gastric fluid
[10] = % remaining at 1 h in human plasma
[11] = % remaining at 1 h in simulated intestinal fluid

## CC(C)OCCn1c(=S)[nH]c(=O)c2c1ccn2C(=O)OC(C)(C)C [Example 191]
[1]; Caco-2, pH 7.4, Caco-2 monolayer, the 15th table
  Papp at 90 min, 10 µM: 1.08 ×10⁻⁶ cm/s
[2]; % remaining at 1 h in simulated gastric fluid, the 15th table
  SGF: 15% @ 1 h
Plasma Stability; % remaining at 1 h in human plasma, the 15th table
  human Plasma stability: 16% @ 1 h
[3]; % remaining at 1 h in simulated intestinal fluid, the 15th table
  SIF: 82% @ 1 h

## COC(=O)n1ccc2c1c(=O)[nH]c(=S)n2CCOC(C)C [Example 233]
[1]; [4]
  Papp at 90 min, 10 µM: 0.314 ×10⁻⁶ cm/s
[2]; simulated gastric fluid, at 1 h
  SGF: 98% remaining
Plasma Stability; human plasma, at 1 h
  human Plasma stability: 2% remaining
[3]; simulated intestinal fluid, at 1 h
  SIF: 70% remaining

## CC(C)OCCn1c(=S)[nH]c(=O)c2c1ccn2COC(=O)CCNC(=O)CNC(=O)OC(C)(C)C [Example 9, {4-Oxo-1-[2-(propan-2-yloxy)ethyl]-2-sulfanylidene-1H,2H,3H,4H,5H-pyrrolo[3,2-d]pyrimidin-5-yl}methyl 3-(2-{[(tert-butoxy)carbonyl]amino}acetamido)propanoate]
[1]; [5]
  Papp at 90 min, 10 µM: 1.53 ×10⁻⁶ cm/s
[2]; [6]
  SGF: 100%
Plasma Stability; [7]
  human Plasma stability: 52%
[3]; [8]
  SIF: 61%

## CC(C)OCCn1c(=S)[nH]c(=O)c2c1ccn2COC(=O)CCC(=O)OC(C)(C)C [Example 126]
[1]; [4]
  Papp at 90 min, 10 µM: 13.5 ×10⁻⁶ cm/s
[2]; [9]
  SGF: 100%
Plasma Stability; [10]
  human Plasma stability: 2% remaining
[3]; [11]
  SIF: 67% remaining

## CC(C)C[C@@H](NC(=O)OC(C)(C)C)C(=O)OCn1ccc2c1c(=O)[nH]c(=S)n2CCOC(C)C [Example 317, {4-oxo-1-[2-(propan-2-yloxy)ethyl]-2-sulfanylidene-1H,2H,3H,4H,5H-pyrrolo[3,2-d]pyrimidin-5-yl}methyl (2R)-2-{[(tert-butoxy)carbonyl]amino}-4-methylpentanoate]
[1]; Caco-2, pH 7.4
  Papp at 90 min, 10 µM: 0.093 ×10⁻⁶ cm/s
[2]; % remaining @ 1 h
  SGF: 56%@ 1 h
Plasma Stability; % remaining @ 1 h
  human Plasma stability: 99%@ 1 h
[3]; % remaining @ 1 h
  SIF: 30%@ 1 h

## CC(C)OCCn1c(=S)[nH]c(=O)c2c1ccn2COC(=O)CCCCNC(=O)[C@H](CCc1ccccc1)NC(=O)OC(C)(C)C.O=C(O)C(F)(F)F [Example 18]
[1]; [4]
  Papp at 90 min, 10 µM: 7.59 ×10⁻⁶ cm/s
[2]; [9]
  SGF: 100%
Plasma Stability; [10]
  human Plasma stability: 66% remaining
[3]; [11]
  SIF: 65% remaining

## CC(C)OCCn1c(=S)[nH]c(=O)c2c1ccn2COC(=O)CCCCNC(=O)[C@@H](NC(=O)OC(C)(C)C)C(C)C [Example 10, {4-oxo-1-[2-(propan-2-yloxy)-ethyl]-2-sulfanylidene-1H,2H,3H,4H,5H-pyrrolo[3,2-d]pyrimidin-5-yl}methyl5-[(2S)-2-{[(tert-butoxy)carbonyl]amino}-3-methylbutanamido]pentanoate]
[1]; [5]
  Papp at 90 min, 10 µM: 4.87 ×10⁻⁶ cm/s
[2]; [6]
  SGF: 81%
Plasma Stability; [7]
  human Plasma stability: 72%
[3]; [8]
  SIF: 76%

## CC(C)OCCn1c(=S)[nH]c(=O)c2c1ccn2C(C)OC(=O)c1ccccc1 (centres unmarked) [Example 115, 1-{4-oxo-1-[2-(propan-2-yloxy)ethyl]-2-sulfanylidene-1H,2H,3H,4H,5H-pyrrolo[3,2-d]pyrimidin-5-yl}ethyl benzoate]
[1]; [5]
  Papp at 90 min, 10 µM: 8.05 ×10⁻⁶ cm/s
[2]; [6]
  SGF: 63%
Plasma Stability; [7]
  human Plasma stability: 59%
[3]; [8]
  SIF: 67%

## CC(C)OCCn1c(=S)[nH]c(=O)c2c1ccn2COC(=O)[C@@H](Cc1ccccc1)NC(=O)OC(C)(C)C [Example 305, {4-oxo-1-[2-(propan-2-yloxy)ethyl]-2-sulfanylidene-1H,2H,3H,4H,5H-pyrrolo [3,2-d]pyrimidin-5-yl}methyl (2R)-2-{[(tert-butoxy)carbonyl]amino}-3-phenylpropanoate]
[1]; Caco-2, pH 7.4
  Papp at 90 min, 10 µM: 3.84 ×10⁻⁶ cm/s
[2]; % remaining @ 1 h
  SGF: 73% @ 1 h
Plasma Stability; % remaining @ 1 h
  human Plasma stability: 39% @ 1 h
[3]; % remaining @ 1 h
  SIF: 1% @ 1 h

## CC(C)OCCn1c(=S)[nH]c(=O)c2c1ccn2COC(=O)CCCOC(=O)[C@H](N)C(C)C [Example 356, trifluoroacetic acid 4-oxo-4-({4-oxo-1-[2-(propan-2-yloxy)ethyl]-2-sulfanylidene-1H,2H,3H,4H,5H-pyrrolo[3,2-d]pyrimidin-5-yl}methoxy)butyl (2R)-2-amino-3-methylbutanoate]
[1]; [4]
  Papp at 90 min, 10 µM: 11.3 ×10⁻⁶ cm/s
[2]; simulated gastric fluid, remaining at 1 h
  SGF: 99% remaining
Plasma Stability; human plasma, remaining at 1 h
  human Plasma stability: 5% remaining
[3]; simulated intestinal fluid, remaining at 1 h
  SIF: 25% remaining

## CC(C)OCCn1c(SCOC(=O)C2CCN(C(=O)OC(C)(C)C)CC2)nc(=O)c2c1ccn2COC(=O)CCC(=O)OC(C)(C)C [Example 131]
[1]; [4]
  Papp at 90 min, 10 µM: 6.58 ×10⁻⁶ cm/s
[2]; [9]
  SGF: 99% remaining
Plasma Stability; [10]
  human Plasma stability: 1% remaining
[3]; [11]
  SIF: 75% remaining
